Measured values published in PMC12311865, “In Vitro Evaluation of the Potential Interactions of Zearalenone-14-sulfate and Zearalenone-14-glucuronide with Human Cytochrome P450 Enzymes, Organic Anion Transporting Polypeptides, and ATP-Binding Cassette Multidrug Transporters” (ACS Omega, 2025).

What was measured:
CYP2C9 = target: T1, CYP2C9 (Homo sapiens, UniProt P11712); test: in vitro; format: biochemical; conditions: human, pH 7.5
T1 construct: purchased Merck
Protocol: Inhibitory actions of ZEN conjugates on CYP2C9 and CYP3A4 enzymes were examined employing CypExpress Cytochrome P450 human kits. , Briefly, incubates (200 μL) contained the substrate (5 μM; diclofenac for CYP2C9 and testosterone for CYP3A4), the CypExpress reagent (6 mg/mL of CYP2C9 kit or 15 mg/mL of CYP3A4 kit; also including the glucose-6-phosphate dehydrogenase enzyme), and the test compounds (each 20 μM) in 0.05 M potassium phosphate buffer (pH 7.5). CYP3A4 assay was supplemented with additional G6P and NADP^+ (both 400 μM). Enzyme assays were started with the addition of the enzyme. After 120 min (CYP2C9) or 180 min (CYP3A4) incubation at 700 rpm and 30 °C in a thermomixer, the reaction was stopped with 100 μL of ice-cold methanol. Then, the samples were centrifuged for 10 min at 14,000g and room temperature. The supernatants were gently removed and directly analyzed by HPLC (see Section ).
Diclofenac and 4′-hydroxydiclofenac (CYP2C9 assay) were quantified using the previously reported HPLC-UV assay, , without modification. Briefly, the isocratic elution, with 1.0 mL/min flow rate, was performed with orthophosphoric acid (6 mM) and acetonitrile (48:52 v/v %) mobile phase, applying a Security Guard (C8, 4.0 × 3.0 mm; Phenomenex, Torrance, CA) precolumn and a Mediterranea Sea8 (C8, 150 × 4.6 mm, 5 μm; Teknokroma, Barcelona, Spain) analytical column at room temperature (injected volume: 20 μL). Diclofenac and 4′-hydroxydiclofenac were detected at 275 nm.

MDR1 = target: T2, MDR1 (Homo sapiens, UniProt P08183); test: MDR1-mediated NMQ vesicular transport (Sf9 membrane vesicles); format: biochemical; conditions: human; 30 μM; NMQ 5 μM; read-out: inhibition of MDR1-mediated, ATP-dependent uptake of NMQ
T2 construct: made in house; host or cells: Sf9 insect cells (baculovirus)
Protocol: Experiments were performed in insect membrane vesicles, as described previously. Briefly, human MDR1, BCRP, and MRP2 were expressed in Sf9 insect cells by baculoviruses. On the third day of infection, cells were collected and membrane vesicles were obtained by mechanical disruption and differential centrifugation. To get full activity for BCRP, the cholesterol levels of the vesicles were adjusted to the level of mammalian membranes. Vesicles were stored at −80 °C, and the total protein content of the preparations was measured by the Lowry method (used as a reference for the quantity). […] A 100 μL volume of fluorescence stabilizer was added to the samples (DMSO for LY, 0.1 M H2SO4 for NMQ, and 0.1 M NaOH for CDCF). Fluorescence of samples was measured by plate readers (Victor X3 and Enspire PerkinElmer; Waltham, MA) at appropriate wavelengths (filters in the Victor X3 reader were 405/535 nm for LY and 492/635 nm for CDCF; while in the Enspire reader, NMQ was measured at 360/430 nm excitation/emission wavelengths). ABC-related transport was calculated by subtracting passive uptake measured without Mg-ATP from values measured in the presence of Mg-ATP.

T2 sequence (P08183 whole entry): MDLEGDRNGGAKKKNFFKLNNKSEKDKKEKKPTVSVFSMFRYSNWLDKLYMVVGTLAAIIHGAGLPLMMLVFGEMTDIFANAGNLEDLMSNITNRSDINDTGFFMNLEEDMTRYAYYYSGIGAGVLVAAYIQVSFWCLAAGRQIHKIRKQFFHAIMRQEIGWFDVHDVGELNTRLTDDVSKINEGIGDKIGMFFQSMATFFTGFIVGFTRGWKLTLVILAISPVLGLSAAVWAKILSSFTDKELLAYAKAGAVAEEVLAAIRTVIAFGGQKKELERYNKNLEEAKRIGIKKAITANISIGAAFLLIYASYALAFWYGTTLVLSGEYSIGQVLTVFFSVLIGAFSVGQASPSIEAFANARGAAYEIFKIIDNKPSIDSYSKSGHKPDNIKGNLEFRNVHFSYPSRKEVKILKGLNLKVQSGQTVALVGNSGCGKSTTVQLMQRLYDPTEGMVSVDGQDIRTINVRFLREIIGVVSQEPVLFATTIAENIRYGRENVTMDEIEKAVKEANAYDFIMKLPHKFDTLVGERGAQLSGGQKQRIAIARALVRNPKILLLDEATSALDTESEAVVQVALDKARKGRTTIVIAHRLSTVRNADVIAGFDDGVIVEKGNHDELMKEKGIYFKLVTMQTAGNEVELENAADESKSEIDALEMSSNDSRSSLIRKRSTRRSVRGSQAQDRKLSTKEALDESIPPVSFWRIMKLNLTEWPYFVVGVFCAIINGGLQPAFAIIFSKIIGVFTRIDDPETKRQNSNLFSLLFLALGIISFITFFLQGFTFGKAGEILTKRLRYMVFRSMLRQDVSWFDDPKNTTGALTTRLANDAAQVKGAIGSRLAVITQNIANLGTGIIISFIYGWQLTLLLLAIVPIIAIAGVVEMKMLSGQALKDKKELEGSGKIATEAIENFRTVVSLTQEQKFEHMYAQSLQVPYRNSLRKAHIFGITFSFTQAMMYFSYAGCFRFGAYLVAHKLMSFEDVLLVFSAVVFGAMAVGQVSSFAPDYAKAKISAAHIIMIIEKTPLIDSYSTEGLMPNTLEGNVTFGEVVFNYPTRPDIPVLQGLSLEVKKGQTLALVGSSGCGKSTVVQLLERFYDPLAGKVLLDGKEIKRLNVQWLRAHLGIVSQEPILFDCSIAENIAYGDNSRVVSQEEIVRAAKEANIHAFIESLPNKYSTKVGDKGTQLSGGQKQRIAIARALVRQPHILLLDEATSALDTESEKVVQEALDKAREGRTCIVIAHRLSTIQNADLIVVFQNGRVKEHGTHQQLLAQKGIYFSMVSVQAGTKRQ
T1 sequence (P11712 whole entry): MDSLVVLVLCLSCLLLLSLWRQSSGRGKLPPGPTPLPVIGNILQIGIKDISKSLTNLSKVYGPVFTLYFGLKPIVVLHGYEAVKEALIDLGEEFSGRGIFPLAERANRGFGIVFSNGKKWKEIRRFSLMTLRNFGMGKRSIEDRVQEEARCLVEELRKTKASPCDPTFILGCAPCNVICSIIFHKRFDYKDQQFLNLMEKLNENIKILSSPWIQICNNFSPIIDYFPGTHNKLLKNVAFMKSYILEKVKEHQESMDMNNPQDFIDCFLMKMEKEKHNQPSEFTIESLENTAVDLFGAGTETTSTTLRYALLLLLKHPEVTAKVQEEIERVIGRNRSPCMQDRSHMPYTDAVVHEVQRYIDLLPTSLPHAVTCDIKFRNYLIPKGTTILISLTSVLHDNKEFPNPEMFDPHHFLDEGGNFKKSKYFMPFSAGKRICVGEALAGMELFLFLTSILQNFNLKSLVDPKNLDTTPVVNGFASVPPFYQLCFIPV

Row | SMILES | inhibition of CYP2C9 (decrease in metabolite formation) (CYP2C9) | inhibition at 10 min, 30 μM (MDR1) [%]
1 | Nc1ccc(S(=O)(=O)Nc2ccnn2-c2ccccc2)cc1 [sulfaphenazole, reference compound] | more than 90% | –
2 | COc1ccc(CCN(C)CCCC(C#N)(c2ccc(OC)c(OC)c2)C(C)C)cc1OC (centres unmarked) [verapamil, reference compound] | – | 97
